{"source": "patent US20150212068A1", "about": "“Cholyl-L-Lysyl-Fluorescein Assay” (Novassay SA, priority 2012, published 2015)", "assay": "Stability of CLF-spiked serum samples after 12 day storage at 2-8° C., CLF ELISA", "type": "in vitro ADME, human", "method": "These conditions were used for all assays described in Phase 2a (above) and Phase 2b (below). See Appendix B and C for buffer and conjugate formulations respectively: • Add 25 μl/well of sample or standard (0-1000 ng/ml CLF in Buffer #24) to the wells of a streptavidin-coated microtitre plate (NovAssay, F2SAC). • Add 100 μl/well of fluorescein-biotin (Sigma B9431) at 20 ng/ml in Buffer #24+0.2% w/v ANS (Sigma 10417). • Add 100 μl/well of anti-fluorescein HRP (NovAssay, DV047/17-3) at 100 ng/ml in Buffer #24. • Incubate the plate for 30 minutes at room temperature. • Wash the plate 3 times with 800 μl/well Buffer #29 and tap the plate dry. • Add 100 μl/well of SureBlue Reserve TMB Substrate (KPL) and incubate the plate for 10 minutes at room temperature. • Stop the substrate reaction by adding 100 μl/well of 1M HCl and read the absorbance at 450 nm wavelength (ThermoFisher Scientific, Multiskan FC).\nSample drift was assessed by using two sera spiked with CLF to 4 levels (62.5, 125, 250 and 500 ng/ml). Each of the samples were added to streptavidin coated wells (in duplicate) soon after the addition of the standards (time 0, in columns 5&6)); after 5 minutes the samples were added to columns 7&8; “5 minute” time point” 5 minutes later in columns 9&10 (“10 minute time point” and 5 minutes later in columns 11&12 (“15 minute time point”). The samples used were prepared 12 days prior to the experiment and were kept at 2-8° C. In addition, some other serum samples that were spiked with CLF at the same time (12 days prior to the assay) were also measured in order to determine the stability of CLF (note: The data obtained are the results of 2 variables (instability of CLF and the recovery) and thus represent a “worst case scenario”.\nThe level of instability (after 12 day storage at 2-8° C.) was calculated by comparing the results obtained with the expected results.", "key": {"[1]": {"conditions": "12 day storage at 2-8° C., pool1, Expected 125 ng/ml"}, "[2]": {"conditions": "12 day storage at 2-8° C., pool2, Expected 31.25 ng/ml"}, "[3]": {"conditions": "12 day storage at 2-8° C., pool3, Expected 500 ng/ml"}, "[4]": {"conditions": "12 day storage at 2-8° C., sample 5876, Expected 1000 ng/ml"}, "[5]": {"conditions": "12 day storage at 2-8° C., sample 5881, Expected 1000 ng/ml"}, "[6]": {"conditions": "12 day storage at 2-8° C., sample 5883, Expected 500 ng/ml"}, "[7]": {"conditions": "12 day storage at 2-8° C., sample 5883, Expected 1000 ng/ml"}, "[8]": {"conditions": "12 day storage at 2-8° C., sample 5884, Expected 62.5 ng/ml"}, "[9]": {"conditions": "12 day storage at 2-8° C., sample 5884, Expected 125 ng/ml"}, "[10]": {"conditions": "12 day storage at 2-8° C., sample 5884, Expected 250 ng/ml"}, "[11]": {"conditions": "12 day storage at 2-8° C., sample 5884, Expected 500 ng/ml"}, "[12]": {"conditions": "12 day storage at 2-8° C., sample 5885, Expected 62.5 ng/ml"}, "[13]": {"conditions": "12 day storage at 2-8° C., sample 5885, Expected 125 ng/ml"}, "[14]": {"conditions": "12 day storage at 2-8° C., sample 5885, Expected 250 ng/ml"}, "[15]": {"conditions": "12 day storage at 2-8° C., sample 5885, Expected 500 ng/ml"}, "[16]": {"conditions": "12 day storage at 2-8° C., sample 5885, Expected 1000 ng/ml"}}}
{"smiles": "CC(CCC(=O)NC(CCCCNC(=S)Nc1ccc(-c2c3ccc(=O)cc-3oc3cc(O)ccc23)c(C(=O)O)c1)C(=O)O)C1CCC2C3C(O)CC4CC(O)CCC4(C)C3CC(O)C12C", "note": "[CLF, Cholyl-L-Lysyl-Fluorescein]", "values": [{"measurement": "Difference, mean", "setting": "12 day storage at 2-8° C., mean of all samples", "value": "−27", "unit": "%"}, {"measurement": "Difference", "setting": "[1]", "value": "−39", "unit": "%"}, {"measurement": "observed", "setting": "[1]", "value": 76, "unit": "ng/mL"}, {"measurement": "Difference", "setting": "[2]", "value": "−14", "unit": "%"}, {"measurement": "observed", "setting": "[2]", "value": 27, "unit": "ng/mL"}, {"measurement": "Difference", "setting": "[3]", "value": "−27", "unit": "%"}, {"measurement": "observed", "setting": "[3]", "value": 365, "unit": "ng/mL"}, {"measurement": "Difference", "setting": "[4]", "value": "−24", "unit": "%"}, {"measurement": "observed", "setting": "[4]", "value": 756, "unit": "ng/mL"}, {"measurement": "Difference", "setting": "[5]", "value": "−18", "unit": "%"}, {"measurement": "observed", "setting": "[5]", "value": 820, "unit": "ng/mL"}, {"measurement": "Difference", "setting": "[6]", "value": "−25", "unit": "%"}, {"measurement": "observed", "setting": "[6]", "value": 375, "unit": "ng/mL"}, {"measurement": "Difference", "setting": "[7]", "value": "−10", "unit": "%"}, {"measurement": "observed", "setting": "[7]", "value": 903, "unit": "ng/mL"}, {"measurement": "Difference", "setting": "[8]", "value": "−29", "unit": "%"}, {"measurement": "observed", "setting": "[8]", "value": 44, "unit": "ng/mL"}, {"measurement": "Difference", "setting": "[9]", "value": "−36", "unit": "%"}, {"measurement": "observed", "setting": "[9]", "value": 80, "unit": "ng/mL"}, {"measurement": "Difference", "setting": "[10]", "value": "−39", "unit": "%"}, {"measurement": "observed", "setting": "[10]", "value": 153, "unit": "ng/mL"}, {"measurement": "Difference", "setting": "[11]", "value": "−32", "unit": "%"}, {"measurement": "observed", "setting": "[11]", "value": 340, "unit": "ng/mL"}, {"measurement": "Difference", "setting": "[12]", "value": "−27", "unit": "%"}, {"measurement": "observed", "setting": "[12]", "value": 46, "unit": "ng/mL"}, {"measurement": "Difference", "setting": "[13]", "value": "−33", "unit": "%"}, {"measurement": "observed", "setting": "[13]", "value": 84, "unit": "ng/mL"}, {"measurement": "Difference", "setting": "[14]", "value": "−29", "unit": "%"}, {"measurement": "observed", "setting": "[14]", "value": 177, "unit": "ng/mL"}, {"measurement": "Difference", "setting": "[15]", "value": "−24", "unit": "%"}, {"measurement": "observed", "setting": "[15]", "value": 379, "unit": "ng/mL"}, {"measurement": "Difference", "setting": "[16]", "value": "−20", "unit": "%"}, {"measurement": "observed", "setting": "[16]", "value": 804, "unit": "ng/mL"}, {"measurement": "reduction in measured CLF (mean)", "setting": "samples kept at 2-8 C. for 12 days", "value": "27%) occurs when samples are kept"}, {"measurement": "reduction in measured CLF (mean)", "setting": "spiked serum samples kept at 2-8° C. for 12 days, vs expected", "value": 27, "unit": "%"}]}
